Results reported in PubChem BioAssay (NCI).
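Dose response: 5 concentrations. Exposure: 48 h. Format: 96-well plates. Endpoint: linear interpolation; highest concentration if not reached. GI50 is the concentration that inhibits growth by half. TGI: concentration producing complete growth inhibition.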

Columns and labels:
Experiment in all cases: growth of human tumour cells (NCI), 48 h
HOP-92 NSCLC = system: HOP-92 NSCLC
MALME-3M melanoma = system: MALME-3M melanoma
MDA-MB-435 = system: MDA-MB-435
MOLT-4 leukemia = system: MOLT-4 leukemia
NCI-H23 lung = system: NCI-H23 lung
OVCAR-4 ovarian = system: OVCAR-4 ovarian
OVCAR-8 ovarian = system: OVCAR-8 ovarian
SK-MEL-5 melanoma = system: SK-MEL-5 melanoma
T-47D breast = system: T-47D breast
UACC-257 melanoma = system: UACC-257 melanoma

SMILES	GI50 (HOP-92 NSCLC) [µM]	TGI (HOP-92 NSCLC) [µM]	GI50 (MALME-3M melanoma) [µM]	TGI (MALME-3M melanoma) [µM]	GI50 (MDA-MB-435) [µM]	TGI (MDA-MB-435) [µM]	GI50 (MOLT-4 leukemia) [µM]	TGI (MOLT-4 leukemia) [µM]	GI50 (NCI-H23 lung) [µM]	TGI (NCI-H23 lung) [µM]	GI50 (OVCAR-4 ovarian) [µM]	TGI (OVCAR-4 ovarian) [µM]	GI50 (OVCAR-8 ovarian) [µM]	TGI (OVCAR-8 ovarian) [µM]	GI50 (SK-MEL-5 melanoma) [µM]	TGI (SK-MEL-5 melanoma) [µM]	GI50 (T-47D breast) [µM]	TGI (T-47D breast) [µM]	GI50 (UACC-257 melanoma) [µM]	TGI (UACC-257 melanoma) [µM]
Nc1nc(N)c(-c2ccc(Cl)c(Cl)c2)c(CP(Cl)(Cl)(Cl)Br)n1	12.6	54.3	18.4	72.1	4.4	84.3	28.6	> 100	19.6	> 100	53.8	> 100	6.51	> 100	6.72	56.6	34.1	> 100	8.35	84.7
CC(=O)/C=C/c1ccc(N(CCO)Cc2ccc(C(C)(C)C)cc2)cc1	27.6	156	65.3	208	64	196	30.1	142	63.7	235	43.6	175	62.9	210	39.9	146	31	161	78.1	217
O=c1[nH]c(=O)n(C2OC(CO)C(O)C2O)cc1F (configuration not stated)	24.9	> 100		47.5	0.0445	> 77.9	0.0428	> 100		> 43.9		17.7		> 100		38.4		> 100	1.33	53.4
OCC1OC(n2cnc3c(NCc4ccccc4O)ncnc32)C(O)C1O (configuration not stated)	0.709	7.51	2.99	> 75.5	0.184	3.2	0.596	> 38	0.457	4.46	0.294	8.14	0.225	8.09	1.84	15.3	0.345	4.87	> 83.6	> 100
Cc1ccc(NC2=CC(=O)C(=O)c3ccccc32)cc1	5.71	20.2	1.63	3.17	1.74	3.2	3.71	> 100	1.56	4.1	1.39	2.72	2.4	7.82	1.38	2.67	3.68	18.1	1.43	2.8
CC(C)(C)OC(=O)N1Cc2cc3ccccc3nc2C1CO (configuration not stated)	57.8	> 100	> 100	> 100	> 100	> 100	> 100	> 100	> 100	> 100	> 100	> 100	> 100	> 100	> 100	> 100	> 100	> 100	> 100	> 100
C[C@@H](Oc1cc(-c2cnn(C3CCNCC3)c2)cnc1N)c1c(Cl)cc(F)cc1Cl	0.73	3.6	1.27	2.94	0.749	9.42	0.866	7.71	1.93	14.8	2.86	10.8	3.83	16.3	1.51	2.89	1.74	4.58	1.49	3.07
COc1ccc(-c2nnc(Nc3nc(O)c(C4=c5cc(Br)ccc5=NC4=O)s3)o2)cc1	21.2	65.6		3.53	23.8	57.7	3.51	27.6	23.6	> 69.3	27.5	> 100	19.3	> 76.4	18.3	> 59.5	41.9	> 100	7.79	56.9
CC(=O)c1ccc(Oc2c3ccccc3nc3occc23)cc1	31.6	> 100	4.14	> 100	2.02	5.41	5.71	> 100	18.9	> 100	46.9	> 100	3.33	> 100	8.75	> 100	8.21	> 100	4.85	> 100
O=C(CC1Sc2ccccc2NC1=O)NNc1ccc(F)cc1 (configuration not stated)	> 100	> 100	> 100	> 100	4.34	> 100	5.52	> 100	> 100	> 100	> 100	> 100	9.78	> 100	46.1	> 100	14.6	> 100		
c1ccc(/C(=N\Nc2nc3ccccc3s2)c2ccccn2)cc1		> 71.6		34.4		> 100		4.17		> 100		> 100		> 100		7.91		52.5		> 25.9
CCOC(=O)c1cc2c(n1Cc1ccccc1OC)-c1oncc1CCC2	0.309	7.43	3.08	> 100	0.351	> 100	5.68	> 100	8.52	> 100	9.35	> 100	3.85	> 100	2.61	> 100	2.46	> 100		
CCOC(=O)CCSC1=CC(=O)c2nc3ccccc3c3ccnc1c23	25.8	62.6	17.5	35.4	17.8	37.7	7.31	> 100	16.3	43.3	15.2	31.7			13.4	30.4	24.3	76	14.6	35.7
Nc1ncnc2c1ncn2CCCCC(=O)O		> 100		> 100		> 100		> 100		> 100		> 100		> 100		> 100		> 100		> 100
O=C(Nc1ccc(Cl)cc1)N1CCN(c2ccc3nncn3n2)CC1	31.7	> 100	89.1	> 100	64.3	> 100	23.8	69.6	42.3	> 100	51.6	> 100	69.7	> 100	37.3	> 100	29.4	> 100		
NS(=O)(=O)c1cc(C(=O)O)c(Cl)c([N+](=O)[O-])c1Cl		> 100		> 100		> 100		> 100		> 100		> 100		> 100		> 100		> 100		> 100
NCCCNc1nc2ccccc2c2c(=O)c3cc(F)cc(Cl)c3sc12	1.87	11.8	1.68	3.32	1.66	3.04	1.78	3.77	1.56	3.07	1.82	3.63	1.81	3.83	6.5	20.3	1.4	4.23	3.29	11.2
O=c1[nH]c2ccccc2n1C1CCN(CCOc2ccccc2)CC1	22.9	> 100	51.5	> 100	6.75	72.3	48	> 100	30.5	> 100	5.86	> 100	13.3	> 100	16	42	15.7	> 100	70.7	> 100
O=C(Nc1cc2cc([N+](=O)[O-])ccc2oc1=O)c1cccs1		> 100		> 100		70.8		> 100				> 100		> 100		45		> 100		> 100
CCN(CC)CCCC(C)Nc1ccnc(/C=C/c2ccc(Cl)cc2)c1 (configuration not stated)		3.12		3.08		2.95				23.7				7.57		6.17		3.59		3.59
COc1cccc(-c2nn(-c3ccccc3)cc2-c2ccnc(NCCCNS(=O)(=O)c3ccc(C(F)(F)F)cc3)c2)c1	3.68	> 100	3.4	> 100	4.2	> 100			4.86	> 100	4.36	> 100	7.13	> 100	2.18	5.04	2.54	9.11	6.3	55.9
COc1ccc(NC(=O)c2cccc(C3CCc4c(cc(OC)c(OC)c4OC)O3)c2)cc1 (configuration not stated)	0.29	3.49	2.69	> 100	0.528	9.92			4.56	> 100	3.14	> 100	3.1	> 100	1.67	3.89	2.49	7.48	3.72	> 100
Cn1cc(-c2nc(-c3cn(C)c4ncccc34)cs2)c2ccccc21	1.68	9.39	0.468	5.64	0.292	1.15	4.65	> 100	3.14	23.9			3.43	> 100	0.842	3.06	2.98	17	3.61	> 100
Cc1ccc(/C(=C/C=C(C#N)C#N)Sc2nc3ccccc3s2)cc1			2.52	6.57	3.54	13.1	> 100	> 100	3.36	11.6	6.68	87.6	4.35	65.6	13.3	26.6	5.2	35.7	12.1	27.3
O=C(O)c1cc(Cl)cc(Cc2cc(Cl)cc(C(=O)O)c2O)c1O		> 100		> 100		> 100		> 100		> 100		> 100		> 100		> 100		> 100		
COc1ccc(C(Nc2ccccn2)c2cc(C(C)(C)C)cc(C(C)(C)C)c2O)cc1 (configuration not stated)		> 100		24.4		62.4				51.2		> 100		> 100		31.3		76.4		> 100
CC(=N\O)/C(C)=N/O.CC(=N\O)/C(C)=N/O.[Fe].[NH2-].c1c[nH]cn1	28.6	> 100	> 100	> 100	> 100	> 100	> 100	> 100			> 100	> 100	> 100	> 100	> 100	> 100	> 100	> 100	> 100	> 100
CC[Si](CC)(CC)OC1[C@@H](O[Si](CC)(CC)CC)[C@@H](CNC(=O)NC)O[C@H]1n1cnc2c(NC(=O)Nc3ccccc3)ncnc21 (some centres not stated)	1.58	5.26	2.39	6.67	3.17	> 100			3.64	> 100	3.41	> 100	3.89	> 100	2.01	4.02	4.47	> 100	2.81	55.8
Oc1cc(O)c2c(c1)OC(c1ccc(O)c(O)c1)C(O)C2c1c(O)cc(O)c2c1OC(c1ccc(O)c(O)c1)C(O)C2 (configuration not stated)		> 100		> 100		> 100				> 100		> 100		> 100		> 100		> 100		> 100
